In patent US9204646B2, “Pyrazole tetrahydronaphthyl carboxamides” (BAYER CROPSCIENCE AG, priority 2012, dated 2015):

How the values were obtained:
[1] = test system: Septoria tritici; test: In vivo preventive test on Septoria tritici (leaf spot on wheat); conditions: dose of 500 ppm; preventive spray on wheat plants; grading 24 days after contamination vs control plants
Protocol: Wheat plants (“Scipion” variety), sown in starter cups on a 50/50 peat soil-pozzolana substrate and grown at 22° C., are treated at the 1-leaf stage (10 cm height) by spraying with the active ingredient prepared as described above. Plants, used as controls, are treated with the mixture of acetone/tween/DMSO/water not containing the active material. After 24 hours, the plants are contaminated by spraying the leaves with an aqueous suspension of cryopreserved Septoria tritici spores (500 000 spores per ml). The contaminated wheat plants are incubated for 72 hours at 18° C. and at 100% relative humidity, and then for 21 days at 90% relative humidity. Grading (% of efficacy) is carried out 24 days after the contamination, in comparison with the control plants.

[2] = Measurement of log P values by HPLC on reversed phase columns (EEC directive 79/831 Annex V.A8); assay type: physicochemical; conditions: for logP: method [a]: LC-MS at pH 2.7, 0.1% formic acid in water / acetonitrile, linear gradient 10% to 95% acetonitrile, Table 1 active ingredients; for chromatographic logP: pH 2.7
[3] = test system: Sphaerotheca fuliginea; test: In vivo preventive test on Sphaerotheca fuliginea (powdery mildew on cucurbits); conditions: dose of 500 ppm; preventive spray on gherkin plants; grading 12 days after contamination vs control plants
Protocol: Gherkin plants (“Vert petit de Paris” variety), sown in starter cups on a 50/50 peat soil-pozzolana substrate and grown at 24° C., are treated at the Z11 cotyledon stage by spraying with the active ingredient prepared as described above. Plants, used as controls, are treated with the mixture of acetone/tween/DMSO/water not containing the active material. After 24 hours, the plants are contaminated by spraying the cotyledons with an aqueous suspension of Sphaerotheca fuliginea spores (100 000 spores per ml). The spores are collected from infected plants. The contaminated gherkin plants are incubated at about 20° C. and at 70-80% relative humidity. Grading (% of efficacy) is carried out 12 days after the contamination, in comparison with the control plants.

[4] = test system: Botrytis cinerea; test: In vivo preventive test on Botrytis cinerea (grey mould); conditions: dose of 500 ppm; preventive spray on gherkin plants; grading 4 to 5 days after contamination vs control plants
Protocol: Gherkin plants (“Vert petit de Paris” variety), sown in starter cups on a 50/50 peat soil-pozzolana substrate and grown at 24° C., are treated at the Z11 cotyledon stage by spraying with the active ingredient prepared as described above. Plants, used as controls, are treated with the mixture of acetone/tween/DMSO/water not containing the active material. After 24 hours, the plants are contaminated by spraying the cotyledons with an aqueous suspension of cryopreserved Botrytis cinerea spores (50 000 spores per ml). The spores are suspended in a nutrient solution composed of 10 g/L of PDB, 50 g/L of D-Fructose, 2 g/L of NH4NO3 and 1 g/L of KH2PO4. The contaminated gherkin plants are incubated at 17° C. and at 90% relative humidity. Grading (% of efficacy) is carried out 4 to 5 days after the contamination, in comparison with the control plants.

[5] = test system: Pyrenophora teres; test: In vivo preventive test on Pyrenophora teres (net blotch on barley); conditions: dose of 500 ppm; preventive spray on barley plants; grading 14 days after contamination vs control plants
Protocol: Barley plants (“Plaisant” variety), sown in starter cups on a 50/50 peat soil-pozzolana substrate and grown at 22° C., are treated at the 1-leaf stage (10 cm height) by spraying with the active ingredient prepared as described above. Plants, used as controls, are treated with the mixture of acetone/tween/DMSO/water not containing the active material. After 24 hours, the plants are contaminated by spraying the leaves with an aqueous suspension of Pyrenophora teres spores (12 000 spores per ml). The spores are collected from a 12-day-old culture. The contaminated barley plants are incubated for 48 hours at 20° C. and at 100% relative humidity, and then for 12 days at 20° C. at 70-80% relative humidity. Grading (% of efficacy) is carried out 14 days after the contamination, in comparison with the control plants.

[6] = test system: Uromyces appendiculatus; test: In vivo preventive test on Uromyces appendiculatus (bean rust); conditions: dose of 500 ppm; preventive spray on bean plants; grading 11 days after contamination vs control plants
Protocol: Bean plants (“Saxa” variety), sown in starter cups on a 50/50 peat soil-pozzolana substrate and grown at 24° C., are treated at the 2-leaf stage (9 cm height) by spraying with the active ingredient prepared as described above. Plants, used as controls, are treated with the mixture of acetone/tween/DMSO/water not containing the active material. After 24 hours, the plants are contaminated by spraying the leaves with an aqueous suspension of Uromyces appendiculatus spores (150 000 spores per ml). […] The contaminated bean plants are incubated for 24 hours at 20° C. and at 100% relative humidity, and then for 10 days at 20° C. and at 70-80% relative humidity. Grading (% of efficacy) is carried out 11 days after the contamination, in comparison with the control plants.

[7] = test system: Alternaria brassicae; test: In vivo preventive test on Alternaria brassicae (leaf spot on radish); conditions: dose of 500 ppm; preventive spray on radish plants; grading 6 days after contamination vs control plants
Protocol: Radish plants (“Pernod Clair” variety), sown in starter cups on a 50/50 peat soil-pozzolana substrate and grown at 17° C., are treated at the cotyledon stage by spraying with the active ingredient prepared as described above. Plants, used as controls, are treated with the mixture of acetone/tween/DMSO/water not containing the active material. After 24 hours, the plants are contaminated by spraying the cotyledons with an aqueous suspension of Alternaria brassicae spores (50 000 spores per ml). The spores are collected from a 15-day-old culture. The contaminated radish plants are incubated at 20° C. and at 100% relative humidity. Grading (% of efficacy) is carried out 6 days after the contamination, in comparison with the control plants.

[8] = test system: Puccinia recondita; test: In vivo preventive test on Puccinia recondita (brown rust on wheat); conditions: dose of 500 ppm; preventive spray on wheat plants; grading 12 days after contamination vs control plants
Protocol: Wheat plants (“Scipion” variety), sown in starter cups on a 50/50 peat soil-pozzolana substrate and grown at 22° C., are treated at the 1-leaf stage (10 cm height) by spraying with the active ingredient prepared as described above. Plants, used as controls, are treated with the mixture of acetone/tween/DMSO/water not containing the active material. After 24 hours, the plants are contaminated by spraying the leaves with an aqueous suspension of Puccinia recondita spores (100 000 spores per ml). […] The contaminated wheat plants are incubated for 24 hours at 20° C. and at 100% relative humidity, and then for 10 days at 20° C. and at 70-80% relative humidity. Grading (% of efficacy) is carried out 12 days after the contamination, in comparison with the control plants.

[9] = test system: Pyricularia oryzae; assay type: in vivo; conditions: dose of 500 ppm; preventive spray on rice plants; grading 6 days after contamination vs control plants
[10] = test system: Fusarium nivale (var. majus); test: In vivo Fusarium nivale (var. majus)-test (wheat)/preventive; conditions: concentration of 500 ppm of active ingredient; preventive spray on wheat plants; evaluated 5 days after inoculation; 0% = untreated control, 100% = no disease
Protocol: • Solvent: 49 parts by weight of N,N-dimethylacetamide • Emulsifier: 1 part by weight of alkylaryl polyglycol ether To produce a suitable preparation of active compound, 1 part by weight of active compound or active compound combination is mixed with the stated amounts of solvent and emulsifier, and the concentrate is diluted with water to the desired concentration. To test for preventive activity, young plants are sprayed with the preparation of active compound or active compound combination at the stated rate of application. After the spray coating has been dried, the plants are slightly injured by using a sandblast and afterwards they are sprayed with a conidia suspension of Fusarium nivale (var. majus). The plants are placed in the greenhouse under a translucent incubation cabinet at a temperature of approximately 10° C. and a relative atmospheric humidity of approximately 100%.

[11] = test system: Phakopsora pachyrhizi; test: In vivo Phakopsora test (soybeans)/preventive; conditions: concentration of 10 ppm of active ingredient; preventive spray on soybean plants; evaluated 7 days after inoculation; 0% = untreated control, 100% = no disease
Protocol: To produce a suitable preparation of active compound, 1 part by weight of active compound is mixed with the stated amounts of solvent and emulsifier, and the concentrate is diluted with water to the desired concentration. To test for preventive activity, young plants are sprayed with the preparation of active compound at the stated rate of application. After the spray coating has dried on, the plants are inoculated with an aqueous spore suspension of the causal agent of soybean rust (Phakopsora pachyrhizi) and stay for 24 h without light in an incubation cabinet at approximately 24° C. and a relative atmospheric humidity of 95%. The plants remain in the incubation cabinet at approximately 24° C. and a relative atmospheric humidity of approximately 80% and a day/night interval of 12 h.

Compound	Eff. % [1] [%]	logP [2]	Eff. % [3] [%]	Eff. % [4] [%]	Eff. % [5] [%]	Eff. % [6] [%]	Eff. % [7] [%]	Eff. % [8] [%]	Eff. % [9] [%]	Eff. % [10] [%]	Eff. % [11] [%]	chromatographic logP [2]
C=C1c2cccc(NC(=O)c3c(C(F)F)nn(C)c3F)c2CCC1(C)C [Example 6]	75	3.87[a]	70	97	80	97	97	89	–	–	–	–
CC1c2cccc(NC(=O)c3c(C(F)F)nn(C)c3F)c2CCC1(C)C (racemic) [Example 12]	–	4.11[a]	100	–	81	100	–	100	71	–	–	–
Cn1nc(C(F)F)c(C(=O)Nc2cccc3c2CCCC3(C)C)c1Cl [Example 2]	–	3.89[a]	–	–	–	100	–	98	–	86	96	–
Cn1nc(C(F)F)c(C(=O)Nc2cccc3c2CCC(C)(C)C3)c1F [Example 22]	83	3.79[a]	100	99	70	100	80	94	–	–	–	–
Cn1nc(C(F)F)c(C(=O)Nc2cccc3c2CCCC3(C)C)c1F [Example 1, 5-fluoro-3-(difluoromethyl)-N-(5,5-dimethyl-5,6,7,8-tetrahydronaphthalen-1-yl)-1-methyl-1H-pyrazole-4-carboxamide]	88	–	–	–	–	100	93	100	–	92	–	3.67
Cn1nc(C(F)F)c(C(=O)Nc2cccc3c2CCC(C)(C)C3)c1Cl [Example 25, 5-chloro-3-(difluoromethyl)-N-(6,6-dimethyl-5,6,7,8-tetrahydronaphthalen-1-yl)-1-methyl-1H-pyrazole-4-carboxamide]	100	–	–	97	–	100	70	98	–	–	–	4.04
